Reference: patent publication US20160184356A1, “ARSENIC-BASED TREATMENT OF CANCERS AND INFLAMMATORY DISORDERS” (STC.UNM, priority 2013, published 2016)
Like-named read-outs stand apart in the source and are kept apart here.

Tests used:
[1] = biological target: T1, PARP-1 (C3H1) zinc finger peptide (Homo sapiens, UniProt P09874, DEL32-46); type: binding
T1 construct: purchased Genemed Synthesis Inc. (San Antonio, Tex.); host or cells: chemical synthesis
T1 sequence (P09874 with tags, fused parts or gaps DEL32-46 limits assumed): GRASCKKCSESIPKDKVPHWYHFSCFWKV

[2] = biological target: T2, PARP (Homo sapiens, UniProt P09874); design: host or cells: human keratinocytes; details: cited from earlier work
Target sequence in this assay (P09874 2-1014): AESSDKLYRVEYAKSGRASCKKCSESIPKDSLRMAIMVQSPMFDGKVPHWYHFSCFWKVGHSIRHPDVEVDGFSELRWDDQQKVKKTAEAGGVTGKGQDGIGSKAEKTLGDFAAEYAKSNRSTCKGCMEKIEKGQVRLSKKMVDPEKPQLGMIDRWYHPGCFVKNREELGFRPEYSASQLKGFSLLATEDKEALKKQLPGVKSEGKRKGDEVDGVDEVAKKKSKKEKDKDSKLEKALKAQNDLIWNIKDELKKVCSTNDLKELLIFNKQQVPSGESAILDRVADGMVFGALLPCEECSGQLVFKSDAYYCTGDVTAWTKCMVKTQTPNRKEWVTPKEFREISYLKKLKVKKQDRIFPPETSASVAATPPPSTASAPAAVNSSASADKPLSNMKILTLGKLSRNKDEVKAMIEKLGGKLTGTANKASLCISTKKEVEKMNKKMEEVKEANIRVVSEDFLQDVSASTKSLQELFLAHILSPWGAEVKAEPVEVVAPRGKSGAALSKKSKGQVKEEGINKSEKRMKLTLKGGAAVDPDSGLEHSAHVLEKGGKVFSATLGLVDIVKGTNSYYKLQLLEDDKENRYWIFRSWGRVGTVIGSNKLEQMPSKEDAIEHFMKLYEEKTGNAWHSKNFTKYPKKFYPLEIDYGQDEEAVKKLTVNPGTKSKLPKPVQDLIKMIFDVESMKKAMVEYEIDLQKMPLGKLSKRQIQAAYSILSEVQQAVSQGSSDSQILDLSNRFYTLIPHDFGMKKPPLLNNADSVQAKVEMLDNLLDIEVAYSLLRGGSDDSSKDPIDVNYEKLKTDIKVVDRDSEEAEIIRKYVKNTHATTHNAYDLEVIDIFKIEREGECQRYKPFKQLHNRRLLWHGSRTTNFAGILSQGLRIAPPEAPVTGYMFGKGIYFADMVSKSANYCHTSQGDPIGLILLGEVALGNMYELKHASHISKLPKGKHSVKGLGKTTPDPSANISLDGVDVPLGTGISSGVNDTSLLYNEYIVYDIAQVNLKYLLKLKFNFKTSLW

[3] = biological target: T3, PARP-1 protein (Homo sapiens, UniProt P09874); type: cell-based
T3 construct: APTX, PARP-1, and XPA protein were immunoprecipitated from cell extracts using corresponding antibodies; endogenous in cells; host or cells: HaCaT human keratinocytes
T3 sequence (P09874 whole entry): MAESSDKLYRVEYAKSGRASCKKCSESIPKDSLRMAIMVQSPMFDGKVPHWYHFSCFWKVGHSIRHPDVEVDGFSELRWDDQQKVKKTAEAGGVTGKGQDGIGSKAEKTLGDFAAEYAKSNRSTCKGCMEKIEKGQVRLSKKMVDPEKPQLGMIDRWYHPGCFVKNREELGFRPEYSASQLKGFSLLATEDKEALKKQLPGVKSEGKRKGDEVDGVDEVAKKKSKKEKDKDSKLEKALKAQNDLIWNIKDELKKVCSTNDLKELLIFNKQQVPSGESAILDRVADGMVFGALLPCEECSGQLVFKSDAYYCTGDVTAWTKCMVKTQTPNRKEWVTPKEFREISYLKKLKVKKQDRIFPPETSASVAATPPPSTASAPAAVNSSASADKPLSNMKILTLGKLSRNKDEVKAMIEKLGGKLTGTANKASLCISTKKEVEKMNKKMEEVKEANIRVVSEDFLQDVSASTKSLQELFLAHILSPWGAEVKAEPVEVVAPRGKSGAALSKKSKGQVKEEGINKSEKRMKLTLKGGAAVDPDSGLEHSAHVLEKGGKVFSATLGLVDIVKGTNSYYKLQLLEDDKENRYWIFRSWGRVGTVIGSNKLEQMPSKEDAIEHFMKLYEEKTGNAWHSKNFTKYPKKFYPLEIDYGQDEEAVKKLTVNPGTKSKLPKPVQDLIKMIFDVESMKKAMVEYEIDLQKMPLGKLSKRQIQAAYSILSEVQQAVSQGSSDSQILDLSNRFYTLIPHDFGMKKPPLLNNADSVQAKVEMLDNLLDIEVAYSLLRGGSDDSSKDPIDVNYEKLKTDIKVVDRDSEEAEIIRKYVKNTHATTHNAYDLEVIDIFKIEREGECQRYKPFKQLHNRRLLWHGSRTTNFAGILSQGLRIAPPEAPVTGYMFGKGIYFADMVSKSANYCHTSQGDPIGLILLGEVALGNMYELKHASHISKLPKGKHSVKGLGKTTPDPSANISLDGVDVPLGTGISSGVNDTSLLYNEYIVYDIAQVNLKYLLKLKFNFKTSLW

[4] = biological target: T4, XPA protein (Homo sapiens, UniProt P23025); type: cell-based
T4 construct: APTX, PARP-1, and XPA protein were immunoprecipitated from cell extracts using corresponding antibodies; endogenous in cells; host or cells: HaCaT human keratinocytes
T4 sequence (P23025 whole entry): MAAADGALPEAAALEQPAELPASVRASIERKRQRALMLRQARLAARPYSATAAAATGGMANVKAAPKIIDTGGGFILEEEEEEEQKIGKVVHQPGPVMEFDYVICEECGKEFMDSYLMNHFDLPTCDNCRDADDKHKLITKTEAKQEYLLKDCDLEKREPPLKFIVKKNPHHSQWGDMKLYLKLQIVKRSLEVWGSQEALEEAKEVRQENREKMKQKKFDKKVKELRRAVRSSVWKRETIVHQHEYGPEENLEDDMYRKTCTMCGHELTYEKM

[5] = tested on: C3H1 and C4 complexes; details: cited from earlier work
[6] = biological target: T5, XPA (C4) zinc finger peptide (Homo sapiens, UniProt P23025); type: binding
T5 construct: purchased Genemed Synthesis Inc. (San Antonio, Tex.); host or cells: chemical synthesis
T5 sequence (P23025 101-137 limits assumed): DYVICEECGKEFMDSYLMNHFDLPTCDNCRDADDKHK

[7] = biological target: T6, APTX (C2H2) zinc finger peptide (Homo sapiens, UniProt Q7Z2E3); type: binding
T6 construct: purchased Genemed Synthesis Inc. (San Antonio, Tex.); host or cells: chemical synthesis
T6 sequence (Q7Z2E3 330-356 limits assumed): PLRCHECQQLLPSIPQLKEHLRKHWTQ

[8] = biological target: T6, APTX (C2H2) zinc finger peptide; type: binding; remark: listed apart in the source
[9] = tested on: C2H2 complex; details: cited from earlier work
[10] = biological target: T7, APTX protein (Homo sapiens, UniProt Q7Z2E3); type: cell-based
T7 construct: APTX, PARP-1, and XPA protein were immunoprecipitated from cell extracts using corresponding antibodies; endogenous in cells; host or cells: HaCaT human keratinocytes
T7 sequence (Q7Z2E3 whole entry): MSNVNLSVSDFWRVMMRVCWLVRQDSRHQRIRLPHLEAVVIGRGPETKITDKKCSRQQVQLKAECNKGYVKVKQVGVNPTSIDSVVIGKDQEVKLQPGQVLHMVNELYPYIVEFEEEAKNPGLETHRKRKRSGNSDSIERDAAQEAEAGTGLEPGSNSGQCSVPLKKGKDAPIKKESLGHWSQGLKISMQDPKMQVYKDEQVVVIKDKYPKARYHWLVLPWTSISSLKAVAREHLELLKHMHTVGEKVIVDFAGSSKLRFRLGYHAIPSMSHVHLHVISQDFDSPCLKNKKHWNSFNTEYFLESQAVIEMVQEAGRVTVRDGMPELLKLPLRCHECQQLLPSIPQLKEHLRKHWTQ

[11] = biological target: T1, PARP-1 (C3H1) zinc finger peptide; type: binding; remark: listed apart in the source
[12] = biological target: T1, PARP-1 (C3H1) zinc finger peptide; type: binding; remark: listed apart in the source
[13] = biological target: T5, XPA (C4) zinc finger peptide; type: binding; remark: listed apart in the source
[14] = biological target: T5, XPA (C4) zinc finger peptide; type: binding; remark: listed apart in the source
[15] = biological target: T1, PARP-1 (C3H1) zinc finger peptide; type: binding; remark: listed apart in the source
[16] = biological target: T5, XPA (C4) zinc finger peptide; type: binding; remark: listed apart in the source
[17] = biological target: T2, PARP; design: host or cells: urothelial cells; details: 1 µM; cited from earlier work
Target sequence in this assay (P09874 2-1014 limits assumed): as the sequence (P09874 2-1014) above

[18] = biological target: T6, APTX (C2H2) zinc finger peptide; type: binding; remark: listed apart in the source
[19] = biological target: T6, APTX (C2H2) zinc finger peptide; type: binding; remark: listed apart in the source

| Compound | binding to zinc finger peptide by MALDI-TOF mass spectrometry [1] | PARP activity inhibition [2] | zinc content in protein [3] | zinc content in protein [4] | stability of arsenite bound complex in kinetic studies [5] [min] | As—S bond formation (A270) [6] | binding to zinc finger peptide by MALDI-TOF mass spectrometry [7] | tertiary structure change (fluorescent intensity at 350 nm) [8] | stability of arsenite bound complex in kinetic studies [9] [min] | zinc content in protein [10] | As—S bond formation (A270) [11] | tertiary structure change (fluorescent intensity at 350 nm) [12] | tertiary structure change (fluorescent intensity at 350 nm) [13] | binding to zinc finger peptide by MALDI-TOF mass spectrometry [14] | cobalt binding (absorbance at 660 nm) after incubation with arsenical [15] | cobalt binding (absorbance at 660 nm) after incubation with arsenical [16] | PARP activity inhibition [17] | As—S bond formation (A270) [18] | cobalt binding (absorbance at 660 nm) after incubation with arsenical [19] |
| --- | --- | --- | --- | --- | --- | --- | --- | --- | --- | --- | --- | --- | --- | --- | --- | --- | --- | --- | --- |
| sodium arsenite | bound with PARP-1 and XPA zinc finger peptides | up to 90% | selectively displaced zinc from PARP-1 and XPA proteins | selectively displaced zinc from PARP-1 and XPA proteins | 155 | A270 values increased in a concentration-dependent manner | showed no binding to the APTX zinc finger | showed no effect | 1.29 | selectively displaced zinc from PARP-1 and XPA proteins | A270 values increased in a concentration-dependent manner | selectively disrupted the tertiary structure of C3H1 and C4 zinc fingers | selectively disrupted the tertiary structure of C3H1 and C4 zinc fingers | bound with PARP-1 and XPA zinc finger peptides | decreased subsequent cobalt binding in a concentration-dependent manner | decreased subsequent cobalt binding in a concentration-dependent manner |  |  |  |
| C[As](O)O [MMA(III), monomethylarsonous acid] | also bound to the PARP-1 zinc finger |  | caused zinc loss from all three configurations of zinc finger proteins | caused zinc loss from all three configurations of zinc finger proteins |  | A270 values increased for all three types of zinc fingers | bound to APTX zinc finger peptide | decreased in a concentration-dependent manner |  | caused zinc loss from all three configurations of zinc finger proteins | A270 values increased for all three types of zinc fingers | alters the tertiary structure of all 3 conformations of zinc fingers | alters the tertiary structure of all 3 conformations of zinc fingers | bound to the XPA zinc finger | concentration-dependent decrease in cobalt binding to all three peptides | concentration-dependent decrease in cobalt binding to all three peptides | about 30% | A270 values increased for all three types of zinc fingers | concentration-dependent decrease in cobalt binding to all three peptides |
